According to PubChem BioAssay AID1259411 (Chemical Carcinogenesis Research Information System (CCRIS), 2018):
The source made the active and inactive calls. How the calls were made is not given here.

Tested on: rodent carcinogenicity bioassays, tumor incidence
Test: CCRIS carcinogenicity studies
Summary of the method: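 Archive of carcinogenicity, mutagenicity, tumor promotion and tumor inhibition results drawn from journals, NCI reports and other sources, expert-reviewed; covers 1985-2011 and is no longer updated.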

c1ccc2c(c1)[nH]c1ccccc12
carcinogen call (Species: MOUSE, Strain/Sex: B6C3F1/FEMALE, Route: ORAL, Dose: 0.15, 0.3, 0.6% IN DIET FOR 96 WK, Dose: 0.15, 0.3, 0.6% IN DIET FOR 96 WK, Tumor Site: Type of Lesion: LIVER: HEPATOCELLULAR CARCINOMA): active; positive
carcinogen call (Species: MOUSE, Strain/Sex: B6C3F1/MALE, Route: ORAL, Dose: 0.15, 0.3, 0.6% IN DIET FOR 96 WK, Dose: 0.15, 0.3, 0.6% IN DIET FOR 96 WK, Tumor Site: Type of Lesion: FORESTOMACH: PAPILLOMA, SQUAMOUS CELL CARCINOMA, LIVER: HEPATOCELLULAR CARCINOMA): active; positive
carcinogen call (Species: MOUSE, Strain/Sex: CD-1/FEMALE, Route: INTRAPERITONEAL, Dose: 0, 1.75 UMOL/MOUSE (TOTAL DOSE) ADMINISTERED DURING DAYS 1, 8, AND 15 OF LIFE (STUDY DURATION: 52 WK)): inactive; negative
carcinogen call (Species: MOUSE, Strain/Sex: CD-1/MALE, Route: INTRAPERITONEAL, Dose: 0, 1.75 UMOL/MOUSE (TOTAL DOSE) ADMINISTERED DURING DAYS 1, 8, AND 15 OF LIFE (STUDY DURATION: 52 WK)): inactive; negative

O=[O+][O-]
carcinogen call (Species: MOUSE, Strain/Sex: B6C3F1/FEMALE, Route: INHALATION, Dose: 0, 0.12, 0.5, 1 PPM 6 HR/D 5 D/WK FOR 105 WK (STUDY DURATION: 105 WK), Dose: 0, 0.12, 0.5, 1 PPM 6 HR/D 5 D/WK FOR 105 WK (STUDY DURATION: 105 WK), Tumor Site: Type of Lesion: LUNG (ALVEOLAR/BRONCHIOLAR): ADENOMA OR CARCINOMA): active; positive
carcinogen call (Species: MOUSE, Strain/Sex: B6C3F1/FEMALE, Route: INHALATION, Dose: 0, 0.5, 1 PPM 6 HR/D 5 D/WK FOR 130 WK (STUDY DURATION: 130 WK), Dose: 0, 0.5, 1 PPM 6 HR/D 5 D/WK FOR 130 WK (STUDY DURATION: 130 WK), Tumor Site: Type of Lesion: LUNG (ALVEOLAR/BRONCHIOLAR): ADENOMA): active; positive
carcinogen call (Species: MOUSE, Strain/Sex: B6C3F1/MALE, Route: INHALATION, Dose: 0, 0.12, 0.5, 1 PPM 6 HR/D 5 D/WK FOR 105 WK (STUDY DURATION: 105 WK), Dose: 0, 0.12, 0.5, 1 PPM 6 HR/D 5 D/WK FOR 105 WK (STUDY DURATION: 105 WK), Tumor Site: Type of Lesion: LUNG: ALVEOLAR/BRONCHIOLAR ADENOMA OR CARCINOMA): equivocal
carcinogen call (Species: MOUSE, Strain/Sex: B6C3F1/MALE, Route: INHALATION, Dose: 0, 0.5, 1 PPM 6 HR/D 5 D/WK FOR 130 WK (STUDY DURATION: 130 WK), Dose: 0, 0.5, 1 PPM 6 HR/D 5 D/WK FOR 130 WK (STUDY DURATION: 130 WK), Tumor Site: Type of Lesion: LUNG: ALVEOLAR/BRONCHIOLAR ADENOMA OR CARCINOMA): equivocal
carcinogen call (Species: RAT, Strain/Sex: F344/FEMALE, Route: INHALATION, Dose: 0, 0.12, 0.5, 1 PPM 6 HR/D 5 D/WK FOR 20 MO (STUDY DURATION: 20 MO), Dose: 0, 0.12, 0.5, 1 PPM 6 HR/D 5 D/WK FOR 20 MO (STUDY DURATION: 20 MO)): inactive; negative
carcinogen call (Species: RAT, Strain/Sex: F344/FEMALE, Route: INHALATION, Dose: 0, 0.12, 0.5, 1 PPM 6 HR/D 5 D/WK FOR 105 WK (STUDY DURATION: 105 WK), Dose: 0, 0.12, 0.5, 1 PPM 6 HR/D 5 D/WK FOR 105 WK (STUDY DURATION: 105 WK)): inactive; negative
carcinogen call (Species: RAT, Strain/Sex: F344/FEMALE, Route: INHALATION, Dose: 0, 0.5, 1 PPM 6 HR/D 5 D/WK FOR 125 WK (STUDY DURATION: 125 WK), Dose: 0, 0.5, 1 PPM 6 HR/D 5 D/WK FOR 125 WK (STUDY DURATION: 125 WK)): inactive; negative
carcinogen call (Species: RAT, Strain/Sex: F344/MALE, Route: INHALATION, Dose: 0, 0.12, 0.5, 1 PPM 6 HR/D 5 D/WK FOR 20 MO (STUDY DURATION: 20 MO), Dose: 0, 0.12, 0.5, 1 PPM 6 HR/D 5 D/WK FOR 20 MO (STUDY DURATION: 20 MO)): inactive; negative
carcinogen call (Species: RAT, Strain/Sex: F344/MALE, Route: INHALATION, Dose: 0, 0.12, 0.5, 1 PPM 6 HR/D 5 D/WK FOR 105 WK (STUDY DURATION: 105 WK), Dose: 0, 0.12, 0.5, 1 PPM 6 HR/D 5 D/WK FOR 105 WK (STUDY DURATION: 105 WK)): inactive; negative
carcinogen call (Species: RAT, Strain/Sex: F344/MALE, Route: INHALATION, Dose: 0, 0.5, 1 PPM 6 HR/D 5 D/WK FOR 125 WK (STUDY DURATION: 125 WK), Dose: 0, 0.5, 1 PPM 6 HR/D 5 D/WK FOR 125 WK (STUDY DURATION: 125 WK)): inactive; negative

CCN(CC(=O)O)N=O
carcinogen call (Species: MOUSE, Strain/Sex: BALB/C/MALE, Route: ORAL, Dose: 0, 1000, 2000 PPM IN DRINKING WATER FOR 2 WK (STUDY DURATION: 52 WK), Dose: 0, 1000, 2000 PPM IN DRINKING WATER FOR 2 WK (STUDY DURATION: 52 WK)): inactive; negative
carcinogen call (Species: RAT, Strain/Sex: WISTAR/MALE, Route: ORAL, Dose: 0, 1000, 2000 PPM IN DRINKING WATER FOR 2 WK (STUDY DURATION: 52 WK), Dose: 0, 1000, 2000 PPM IN DRINKING WATER FOR 2 WK (STUDY DURATION: 52 WK)): inactive; negative

O=[N+]([O-])c1ccc2ccc3ccc([N+](=O)[O-])c4ccc1c2c34
carcinogen call (Species: RAT, Strain/Sex: F344/MALE, Route: SUBCUTANEOUS, Dose: 0, 0.002, 0.02 MG 2/WK FOR 10 WK (STUDY DURATION: 320 D), Dose: 0, 0.002, 0.02 MG 2/WK FOR 10 WK (STUDY DURATION: 320 D), Tumor Site: Type of Lesion: INJECTION SITE: SARCOMA): active; positive
carcinogen call (Species: RAT, Strain/Sex: STRAIN CD/FEMALE, Route: INTRAGASTRIC, Dose: 0, 10 UMOL IN DMSO 3/WK FOR 4 WK (TOTAL DOSE: 16 UMOL/RAT) (STUDY DURATION: 78 WK), Tumor Site: Type of Lesion: ADRENAL GLAND: PHEOCHROMOCYTOMA, CORTICAL ADENOMA, PITUITARY GLAND: CARCINOMA, LIVER: HYPERPLASTIC NODULES, Tumor Site: Type of Lesion: ADRENAL GLAND: PHEOCHROMOCYTOMA, CORTICAL ADENOMA, PITUITARY GLAND: CARCINOMA, LIVER: HYPERPLASTIC NODULES): active; positive
carcinogen call (Species: RAT, Strain/Sex: STRAIN CD/FEMALE, Route: INTRAGASTRIC, Dose: 0, 10 UMOL IN DMSO 3/WK FOR 4 WK (TOTAL DOSE: 16 UMOL/RAT) (STUDY DURATION: 78 WK), Tumor Site: Type of Lesion: MAMMARY GLAND: ADENOCARCINOMA, FIBROADENOMA): active; positive
carcinogen call (Species: RAT, Strain/Sex: STRAIN CD/FEMALE, Route: INTRAPERITONEAL, Dose: 0, 10 UMOL IN DMSO 3/WK FOR 4 WK (TOTAL DOSE: 16 UMOL/RAT) (STUDY DURATION: 78 WK), Tumor Site: Type of Lesion: HEMATOPOIETIC SYSTEM: HISTIOCYTOMA, LEUKEMIA): active; positive
carcinogen call (Species: RAT, Strain/Sex: STRAIN CD/FEMALE, Route: INTRAPERITONEAL, Dose: 0, 10 UMOL IN DMSO 3/WK FOR 4 WK (TOTAL DOSE: 16 UMOL/RAT) (STUDY DURATION: 78 WK), Tumor Site: Type of Lesion: MAMMARY GLAND: ADENOCARCINOMA): active; positive
carcinogen call (Species: RAT, Strain/Sex: STRAIN-CD/FEMALE, Route: SUBCUTANEOUS, Dose: 0, 6.3 UMOL (TOTAL DOSE) ADMINISTERED OVER 8 WK BEGINNING ON DAY OF BIRTH (STUDY DURATION: 67 WK), Tumor Site: Type of Lesion: INTEGUMENTARY SYSTEM: MALIGNANT FIBROUS HISTIOCYTOMA, HEMATOPOIETIC SYSTEM: LEUKEMIA): active; positive

Cc1cc(=O)n(-c2ccccc2)n1C
carcinogen call (Species: RAT, Strain/Sex: SPRAGUE-DAWLEY/MALE, Route: ORAL, Dose: 0, 0.535% IN DIET FOR 117 WK, Tumor Site: Type of Lesion: KIDNEY): active; positive

O=[N+]([O-])c1ccc2ccc3c4ccccc4ccc3c2c1
carcinogen call (Species: MOUSE, Strain/Sex: ICR/FEMALE, Route: INTRAPERITONEAL, Dose: 0, 100 NMOL (TOTAL DOSE) ADMINISTERED IN 3 SUBDOSES OF 1/7, 2/7, AND 4/7 ON DAYS 1, 8 AND 15 OF LIFE, RESPECTIVELY (STUD): inactive; negative
carcinogen call (Species: MOUSE, Strain/Sex: ICR/MALE, Route: INTRAPERITONEAL, Dose: 0, 100 NMOL (TOTAL DOSE) ADMINISTERED IN 3 SUBDOSES OF 1/7, 2/7, AND 4/7 ON DAYS 1, 8 AND 15 OF LIFE, RESPECTIVELY (STUD): inactive; negative
